How the values were obtained:
[1] = target: T1, Peroxisome proliferator-activated receptor gamma (Homo sapiens) (UniProt P37231); assay: PPARgamma activation in CV1 cells; type: cell-based; conditions: CV-1, filed as agonist
T1 sequence (whole entry): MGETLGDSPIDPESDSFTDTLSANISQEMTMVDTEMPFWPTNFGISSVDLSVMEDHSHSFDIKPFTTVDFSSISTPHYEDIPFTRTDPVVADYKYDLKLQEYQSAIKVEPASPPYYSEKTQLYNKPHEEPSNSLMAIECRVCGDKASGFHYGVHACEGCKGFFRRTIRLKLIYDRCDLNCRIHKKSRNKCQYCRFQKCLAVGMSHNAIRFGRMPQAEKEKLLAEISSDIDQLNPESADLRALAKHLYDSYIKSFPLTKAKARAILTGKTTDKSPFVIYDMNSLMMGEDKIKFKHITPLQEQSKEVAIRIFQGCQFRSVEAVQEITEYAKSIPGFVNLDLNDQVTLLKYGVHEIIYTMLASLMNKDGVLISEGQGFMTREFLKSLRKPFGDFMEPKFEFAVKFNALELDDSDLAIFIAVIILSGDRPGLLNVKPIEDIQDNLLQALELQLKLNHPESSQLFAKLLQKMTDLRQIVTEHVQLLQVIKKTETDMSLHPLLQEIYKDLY

[2] = target: Lysophosphatidic acid receptor 1 (Rattus norvegicus, UniProt P61794); assay: Activity at LPA1 receptor in RH7777 rat hepatoma cell line
Lysophosphatidic acid receptor 1, sequence (P61794 whole entry): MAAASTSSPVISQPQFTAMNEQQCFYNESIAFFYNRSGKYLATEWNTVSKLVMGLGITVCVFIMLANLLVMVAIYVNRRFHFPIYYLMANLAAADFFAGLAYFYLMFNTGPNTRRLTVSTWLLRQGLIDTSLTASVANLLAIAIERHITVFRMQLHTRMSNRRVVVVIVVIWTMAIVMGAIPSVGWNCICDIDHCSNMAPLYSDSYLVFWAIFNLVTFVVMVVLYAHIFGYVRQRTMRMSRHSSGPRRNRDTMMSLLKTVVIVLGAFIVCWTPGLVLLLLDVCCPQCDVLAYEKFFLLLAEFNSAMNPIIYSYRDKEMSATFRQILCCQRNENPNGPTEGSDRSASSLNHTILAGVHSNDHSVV

[3] = target: Lysophosphatidic acid receptor 2 (Homo sapiens, UniProt Q9HBW0); assay: Activity at LPA2 receptor in RH7777 rat hepatoma cell line; type: cell-based
Lysophosphatidic acid receptor 2, sequence (Q9HBW0 whole entry): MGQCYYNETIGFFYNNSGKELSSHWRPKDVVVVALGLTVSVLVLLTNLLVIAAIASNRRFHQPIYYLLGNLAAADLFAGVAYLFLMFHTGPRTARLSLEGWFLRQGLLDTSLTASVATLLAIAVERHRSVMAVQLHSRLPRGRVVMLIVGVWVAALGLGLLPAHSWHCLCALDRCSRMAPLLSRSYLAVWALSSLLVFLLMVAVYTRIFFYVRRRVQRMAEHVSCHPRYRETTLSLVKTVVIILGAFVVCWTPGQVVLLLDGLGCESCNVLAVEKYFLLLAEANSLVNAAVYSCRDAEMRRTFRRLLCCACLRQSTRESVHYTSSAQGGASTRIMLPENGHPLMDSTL

[4] = target: T2, Lysophosphatidic acid receptor 3 (Rattus norvegicus, UniProt Q8K5E0); assay: (§1) Activity at LPA3 receptor in RH7777 rat hepatoma cell line; type: cell-based
T2 sequence (Q8K5E0 whole entry): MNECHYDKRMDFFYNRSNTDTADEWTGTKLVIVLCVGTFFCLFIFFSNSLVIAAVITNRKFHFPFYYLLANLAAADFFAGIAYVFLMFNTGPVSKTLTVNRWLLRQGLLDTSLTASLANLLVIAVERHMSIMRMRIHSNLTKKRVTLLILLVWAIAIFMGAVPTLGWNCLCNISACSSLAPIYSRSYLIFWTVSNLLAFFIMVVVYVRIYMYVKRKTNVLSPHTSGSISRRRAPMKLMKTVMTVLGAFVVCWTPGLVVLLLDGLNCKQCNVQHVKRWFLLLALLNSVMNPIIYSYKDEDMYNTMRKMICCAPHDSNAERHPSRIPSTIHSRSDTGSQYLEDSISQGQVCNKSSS

[5] = target: T3, Lysophosphatidic acid receptor 3 (Rattus norvegicus) (UniProt Q8K5E0); assay: as §1; type: cell-based
T3 sequence (whole entry): T2 sequence (Q8K5E0 whole entry)

Autotaxin = Autotaxin (Homo sapiens, UniProt Q13822); assay: Inhibition of lysophospholipase D autotaxin; conditions: for residual activity: values are per cent of control

In the case of `CCCCCCC/C=C/CCCCCCCC[C@H]1OC[C@H](COP(O)(O)=S)O1`, the Activity [1] is reported as “Agonist”, the EC50 [2] is reported as 1580 nM and the EC50 [3] is reported as 1300 nM. The Emax [3] was 77%, the EC50 [4] was 127 nM and the Emax [5] was 127%. It also gave an IC50 (Autotaxin) of 252 nM and a residual activity (Autotaxin) of 74%.
`CCCCCCC/C=C/CCCCCCCC[C@H]1OC[C@@H](COP(=O)(O)O)O1` was tested, and the Activity [1] was “Agonist”, the IC50 [4] was 209 nM and the Ki [4] was 77 nM. It also gave an IC50 (Autotaxin) of 178 nM and a residual activity (Autotaxin) of 25%.
`CCCCCCC/C=C/CCCCCCCC[C@@H]1OC[C@H](COP(=O)(O)O)O1` was tested, and the Activity [1] was “Agonist”, the EC50 [3] was 1710 nM and the Emax [3] was 42%. The IC50 [4] was 136 nM, the Ki [4] was 83 nM and the IC50 (Autotaxin) was 97 nM. The residual activity (Autotaxin) was 28%.
With `CCCCCCC/C=C/CCCCCCCC[C@@H]1OC[C@@H](COP(=O)(O)O)O1` the Activity [1] was “Agonist”, the EC50 [2] was over 10000 nM and the EC50 [3] was over 10000 nM. The IC50 [4] was 484 nM, the Ki [4] was 241 nM and the IC50 (Autotaxin) was 238 nM. The residual activity (Autotaxin) was 46%.
For `C/C=C/C/C=C/C/C=C/CCCCCCCCC1OCC(COP(=O)(O)O)O1` (stereo unspecified), the Activity [1] was “Agonist”, the EC50 [2] was 3600 nM and the EC50 [3] was 1710 nM. The Emax [3] was 51%, the EC50 [4] was 7590 nM and the Emax [5] was 29%. For the same compound, the IC50 (Autotaxin) was 803 nM and the residual activity (Autotaxin) was 54%.
In the case of `CCCCCCC/C=C/CCCCCCCC[C@H]1OC[C@@H](COP(O)(O)=S)O1`, the Activity [1] is reported as “Agonist”, the EC50 [2] is reported as 1560 nM and the EC50 [3] is reported as 1320 nM. For the same compound, the Emax [3] was 87%, the EC50 [4] was 265 nM and the Emax [5] was 78%. For the same compound, the IC50 (Autotaxin) was 403 nM and the residual activity (Autotaxin) was 60%.
With `CCCCCCCCc1ccc(CCCCCCC2OCC(COP(=O)(O)O)O2)cc1` (stereo unspecified) the Activity [1] was “Agonist”, the IC50 [2] was 4660 nM and the Ki [2] was 1930 nM. The IC50 [4] was 504 nM, the Ki [4] was 171 nM and the IC50 (Autotaxin) was 106 nM. The residual activity (Autotaxin) was 10%.
With `CCCCCCC/C=C/CCCCCCCCC1OCC(COP(O)(O)=S)O1` (stereo unspecified) the Activity [1] was “Agonist”, the EC50 [2] was 981 nM and the EC50 [3] was 1170 nM. The Emax [3] was 87%, the EC50 [4] was 639 nM and the Emax [5] was 73%. The IC50 (Autotaxin) was 415 nM and the residual activity (Autotaxin) was 51%.
`CCCCCCC/C=C/CCCCCCCCC1OCC(COP(=O)(O)O)O1` (stereo unspecified) was tested, and the Activity [1] was “Agonist”, the IC50 [2] was 915 nM and the Ki [2] was 497 nM. The EC50 [3] was over 10000 nM, the IC50 (Autotaxin) was 141 nM and the residual activity (Autotaxin) was 30%.
In the case of `CCCCCCC/C=C/CCCCCCCC[C@@H]1OC[C@@H](COP(O)(O)=S)O1`, the Activity [1] is reported as “Agonist”, the EC50 [2] is reported as 2260 nM and the EC50 [3] is reported as 1540 nM. It also gave an Emax [3] of 72%, an EC50 [4] of 204 nM and an Emax [5] of 102%. The IC50 (Autotaxin) was 363 nM and the residual activity (Autotaxin) was 64%.
For `CCCCCCCCCCCCC1OCC(COP(=O)(O)O)O1` (stereo unspecified), the Activity [1] was “Agonist”, the IC50 [2] was 1110 nM and the Ki [2] was 652 nM. It also gave an IC50 [3] of 7430 nM, a Ki [3] of 745 nM and a residual activity (Autotaxin) of 26%.
In the case of `CCCCCCCCc1ccc(CCCCCCC2OCC(COP(O)(O)=S)O2)cc1` (stereo unspecified), the Activity [1] is reported as “Agonist”, the EC50 [4] is reported as 692 nM and the Emax [5] is reported as 87%. For the same compound, the IC50 (Autotaxin) was 449 nM and the residual activity (Autotaxin) was 55%.
`CCCCCCC/C=C/CCCCCCCC[C@@H]1OC[C@H](COP(O)(O)=S)O1` was tested, and the Activity [1] was “Agonist”, the EC50 [2] was 1410 nM and the EC50 [3] was 1090 nM. For the same compound, the Emax [3] was 85%, the EC50 [4] was 194 nM and the Emax [5] was 113%. It also gave an IC50 (Autotaxin) of 344 nM and a residual activity (Autotaxin) of 66%.
`CCCCCCC/C=C/CCCCCCCC[C@H]1OC[C@H](COP(=O)(O)O)O1` was tested, and the Activity [1] was “Agonist”, the EC50 [3] was 1170 nM and the Emax [3] was 39%. It also gave an IC50 (Autotaxin) of 120 nM and a residual activity (Autotaxin) of 30%.

Reference: ChEMBL document CHEMBL1148595, “Identification of Darmstoff analogs as selective agonists and antagonists of lysophosphatidic acid receptors” (Bioorg Med Chem Lett, 2006)
